According to patent publication US20260062426A1, “CYCLIN DEPENDENT KINASE DEGRADERS AND METHODS OF USE THEREOF” (Differentiated Therapeutics Inc, priority 2023, published 2026):

Legend:
Format in all cases: cell-based
CDK9 = molecular target: T1, CDK9 (Homo sapiens, UniProt P50750); test: CDK9 HIBIT PQ (protein quantification), degradation; details: for CDK9 HIBIT PQ Max (%) / Dmax: Max = Maximum; for DC50: PQ = Protein Quantification
T1 construct: host or cells: HEK293
Outline: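 HEK293 cells bearing HiBiT-tagged CDK9 were cultured in DMEM with 10% FBS, plated into 384-well plates at 1.6×10^5 cells/well in 50 uL, and left overnight at 37° C and 5% CO2. A HiBiT assay measured CDK9 protein after compound treatment, with 0.1% DMSO-treated cells as the high control and culture medium alone as the low control. These readings gave the maximal degradation, Dmax and DC50.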

CCNE1 = molecular target: T2, CCNE1 (Homo sapiens, UniProt P24864+P24941); test: CCNE1 HIBIT PQ (protein quantification), degradation; details: for CCNE1 HIBIT PQ Max (%): Max = Maximum; for DC50: PQ = Protein Quantification
T2 construct: host or cells: HEK293
Outline: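 Compound was applied for 6 hours to HEK293 cells expressing HiBiT-tagged CCNE1, which had been seeded overnight in 384-well plates at 1.6×10⁵ cells/well. CCNE1 protein was then read by HiBiT assay against a high control of 0.1% DMSO-treated cells and a low control of medium only. These readings gave DC50 and maximal degradation.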

CDK2 = molecular target: T3, CDK2 (Homo sapiens, UniProt P24941); test: CDK2 HIBIT PQ (protein quantification), degradation; details: for CDK2 HIBIT PQ Max (%): Max = Maximum; for DC50: PQ = Protein Quantification
T3 construct: host or cells: HEK293
Outline: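 DC50 and maximal degradation were derived from a HiBiT lytic readout in HEK293 cells carrying HiBiT-tagged CDK2. Cells were seeded in 384-well plates at 1.6×10^5 cells/well in 50 uL of DMEM with 10% FBS, incubated overnight at 37° C and 5% CO2, treated with compound for 6 hours, and then given 20 μL of HiBiT reagent with 20 minutes of shaking at room temperature before an EnVision reading. Wells with 0.1% DMSO served as the high control and wells with medium only as the low control.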

T1 sequence (P50750 whole entry): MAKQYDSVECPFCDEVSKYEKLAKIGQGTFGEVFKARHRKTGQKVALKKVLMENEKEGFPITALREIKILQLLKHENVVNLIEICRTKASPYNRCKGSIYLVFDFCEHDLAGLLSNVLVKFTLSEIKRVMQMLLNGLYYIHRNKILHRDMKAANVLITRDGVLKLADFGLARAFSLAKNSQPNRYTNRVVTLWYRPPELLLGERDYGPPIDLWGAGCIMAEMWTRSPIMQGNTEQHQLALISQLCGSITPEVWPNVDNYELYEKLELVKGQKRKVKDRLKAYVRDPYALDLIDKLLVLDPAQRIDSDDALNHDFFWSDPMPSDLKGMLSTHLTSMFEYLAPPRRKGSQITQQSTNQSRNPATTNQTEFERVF

CDK9 HIBIT PQ Max (%) (CDK9)	DC50 (CDK9)	CCNE1 HIBIT PQ Max (%) (CCNE1)	DC50 (CCNE1)	CDK2 HIBIT PQ Max (%) (CDK2)	DC50 (CDK2)	Dmax (CDK9)	Compound
82%	10.6 nM	77%	13.9 nM	90%	2.6 nM		CC(C)Oc1c(-c2cn[nH]c2)ncn2nc(Nc3ccc(S(=O)(=O)c4cccc(C(C)N5CCC(c6ccc7c(N8CCC(=O)NC8=O)nn(C)c7c6)CC5)c4)cc3F)nc12 (single isomer, unassigned) [Compound 101]
75%	5.65 nM	76%	1.34 nM	90%	0.5 nM		CC(C)Oc1c(-c2cn[nH]c2)ncn2nc(Nc3ccc(S(=O)(=O)N4CCC[C@H](CN5CC[C@@H](c6ccc7c(N8CCC(=O)NC8=O)nn(C)c7c6)CC5(C)C)C4)cc3F)nc12 (single isomer, unassigned) [Compound 102]
	4.01 nM	83%	1.96 nM	90%	1 nM	92%	CC(C)Oc1c(-c2cn[nH]c2)ncn2nc(Nc3ccc(S(=O)(=O)N4CCC[C@@H](CN5CC[C@H](c6ccc7c(N8CCC(=O)NC8=O)nn(C)c7c6)CC5(C)C)C4)cc3F)nc12 (single isomer, unassigned) [Compound 103]
		48%		75%	1 nM	13%	CC(C)Oc1c(-c2cn[nH]c2)ncn2nc(Nc3ccc(S(=O)(=O)N4CCC[C@H](CN5CC[C@H](c6ccc7c(N8CCC(=O)NC8=O)nn(C)c7c6)CC5(C)C)C4)cc3F)nc12 (single isomer, unassigned) [Compound 104]
		24%		63%	0.9 nM	25%	CC(C)Oc1c(-c2cn[nH]c2)ncn2nc(Nc3ccc(S(=O)(=O)N4CCC[C@@H](CN5CC[C@@H](c6ccc7c(N8CCC(=O)NC8=O)nn(C)c7c6)CC5(C)C)C4)cc3F)nc12 (single isomer, unassigned) [Compound 105]
		84%	13.1 nM	96%	5.9 nM	26%	CC(C)Oc1c(-c2cn[nH]c2)ncn2nc(Nc3ccc(S(=O)(=O)c4cccc(C[C@H]5C[C@@H](c6ccc7c(c6)CN([C@@H]6CCC(=O)NC6=O)C7=O)C5)c4)cc3F)nc12 (stereo in doubt) [Compound 79, (R)-3-(5-((1r,3S)-3-(3-((3-fluoro-4-((8-isopropoxy-7-(1H-pyrazol-4-yl)-[1,2,4]triazolo[1,5-c]pyrimidin-2-yl)amino)phenyl)sulfonyl)benzyl)cyclobutyl)-1-oxoisoindolin-2-yl)piperidine-2,6-dione]
		85%	20.3 nM	98%	3.9 nM	49%	CC(C)Oc1c(-c2cn[nH]c2)ncn2nc(Nc3ccc(S(=O)(=O)c4cccc(C[C@H]5C[C@H](c6ccc7c(c6)CN([C@@H]6CCC(=O)NC6=O)C7=O)C5)c4)cc3F)nc12 (stereo in doubt) [Compound 80, (R)-3-(5-((1s,3R)-3-(3-((3-fluoro-4-((8-isopropoxy-7-(1H-pyrazol-4-yl)-[1,2,4]triazolo[1,5-c]pyrimidin-2-yl)amino)phenyl)sulfonyl)benzyl)cyclobutyl)-1-oxoisoindolin-2-yl)piperidine-2,6-dione]
		57%	62.8 nM	86%	24.2 nM	1%	CC(C)Oc1c(-c2cn[nH]c2)ncn2nc(Nc3ccc(S(=O)(=O)c4cccc(C[C@H]5C[C@@H](c6ccc7c(c6)CN([C@H]6CCC(=O)NC6=O)C7=O)C5)c4)cc3F)nc12 (stereo in doubt) [Compound 81, (S)-3-(5-((1r,3R)-3-(3-((3-fluoro-4-((8-isopropoxy-7-(1H-pyrazol-4-yl)-[1,2,4]triazolo[1,5-c]pyrimidin-2-yl)amino)phenyl)sulfonyl)benzyl)cyclobutyl)-1-oxoisoindolin-2-yl)piperidine-2,6-dione]
		52%	100 nM	88%	23.4 nM	27%	CC(C)Oc1c(-c2cn[nH]c2)ncn2nc(Nc3ccc(S(=O)(=O)c4cccc(C[C@H]5C[C@H](c6ccc7c(c6)CN([C@H]6CCC(=O)NC6=O)C7=O)C5)c4)cc3F)nc12 (stereo in doubt) [Compound 82, (S)-3-(5-((1s,3S)-3-(3-((3-fluoro-4-((8-isopropoxy-7-(1H-pyrazol-4-yl)-[1,2,4]triazolo[1,5-c]pyrimidin-2-yl)amino)phenyl)sulfonyl)benzyl)cyclobutyl)-1-oxoisoindolin-2-yl)piperidine-2,6-dione]
	2.98 nM	92%	1.94 nM	93%	1.62 nM	104%	CC(C)Oc1c(-c2cn[nH]c2)ncn2nc(NC3CCN(S(=O)(=O)c4cccc(CN5CCC(c6ccc7c(N8CCC(=O)NC8=O)nn(C)c7c6)CC5)c4)CC3)nc12 [Compound 1, 1-(6-(1-(3-((4-((8-isopropoxy-7-(1H-pyrazol-4-yl)-[1,2,4]triazolo[1,5-c]pyrimidin-2-yl)amino)piperidin-1-yl)sulfonyl)benzyl)piperidin-4-yl)-1-methyl-1H-indazol-3-yl)dihydropyrimidine-2,4(1H,3H)-dione]
	3.91 nM	94%	3.16 nM	92%	1.67 nM	104%	CC(C)Oc1c(-c2cn[nH]c2)ncn2nc(N[C@H]3CCN(S(=O)(=O)c4cccc(CN5CCC(c6ccc7c(N8CCC(=O)NC8=O)nn(C)c7c6)CC5)c4)C[C@H]3C)nc12 [Compound 5]
	2.13 nM	96%	0.76 nM	92%	1.07 nM	91%	CC(C)Oc1c(-c2cn[nH]c2)ncn2nc(N[C@H]3CCN(S(=O)(=O)N(C)CCCN4CCC(c5cccc6c5n(C)c(=O)n6C5CCC(=O)NC5=O)CC4)C[C@H]3C)nc12 (stereo partly drawn) [Compound 7]
	10.2 nM	81%	7.36 nM	92%	1.58 nM	91%	CC(C)Oc1c(-c2cn[nH]c2)ncn2nc(Nc3ccc(S(=O)(=O)c4cccc(CN5CCC(c6ccc7c(N8CCC(=O)NC8=O)nn(C)c7c6)CC5)c4)cc3F)nc12 [Compound 8, 1-(6-(1-(3-((3-fluoro-4-((8-isopropoxy-7-(1H-pyrazol-4-yl)-[1,2,4]triazolo[1,5-c]pyrimidin-2-yl)amino)phenyl)sulfonyl)benzyl)piperidin-4-yl)-1-methyl-1H-indazol-3-yl)dihydropyrimidine-2,4(1H,3H)-dione]
	1.37 nM	93%	0.72 nM	95%	0.35 nM	99%	CC(C)Oc1c(-c2cn[nH]c2)ncn2nc(Nc3ccc(S(=O)(=O)N(C)CCCN4CCC(c5ccc6c(N7CCC(=O)NC7=O)nn(C)c6c5)CC4)cc3F)nc12 [Compound 15]
		88%	3.14 nM	94%	0.6 nM	14%	CC(C)Oc1c(-c2cn[nH]c2)ncn2nc(Nc3ccc(S(=O)(=O)N(C)CCCN4CCC(c5cccc6c(N7CCC(=O)NC7=O)nn(C)c56)CC4)cc3F)nc12 [Compound 24]
